Experimental data as given in patent US12016901B2, “Tissue catalyzed growth of polymer as epithelial linings for therapy” (priority 2019, dated 2024).

Key:
catalase = target: T1, catalase (Sus scrofa, UniProt O62839); experiment: In vitro inhibition of catalase activity in tissue lysates; assay type: biochemical, pig; settings: small intestinal lysates, inhibitor 20 mM, 6 hours, 4° C.
T1 construct: from tissue; host or cells: porcine small intestinal epithelium, homogenized in RIPA buffer (tissue lysate)
T1 sequence (O62839 2-527 limits assumed): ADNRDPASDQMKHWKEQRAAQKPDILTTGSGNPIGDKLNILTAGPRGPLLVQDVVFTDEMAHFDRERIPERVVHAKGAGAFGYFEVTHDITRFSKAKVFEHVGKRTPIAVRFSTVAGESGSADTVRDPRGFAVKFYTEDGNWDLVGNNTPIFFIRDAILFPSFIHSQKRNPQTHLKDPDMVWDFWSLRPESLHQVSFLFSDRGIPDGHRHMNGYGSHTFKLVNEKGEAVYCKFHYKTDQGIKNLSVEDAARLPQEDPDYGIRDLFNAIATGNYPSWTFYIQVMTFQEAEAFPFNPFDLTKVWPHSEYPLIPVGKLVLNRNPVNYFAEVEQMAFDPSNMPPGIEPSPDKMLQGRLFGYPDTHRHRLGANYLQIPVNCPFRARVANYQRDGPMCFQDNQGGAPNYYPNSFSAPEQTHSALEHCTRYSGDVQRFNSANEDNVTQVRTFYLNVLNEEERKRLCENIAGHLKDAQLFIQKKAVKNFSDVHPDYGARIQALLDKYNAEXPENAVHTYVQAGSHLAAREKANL
Procedure: Tissue lysate preparation. Epithelial tissues of the porcine gastrointestinal tract were dissected on ice. The outer mucus layers were removed by aspiration, and then the rinsed tissues [(with 1× phosphate-buffered saline (PBS)] were frozen by liquid nitrogen. Tissues (10 mg) were incubated in the ice-cold lysis buffer (600 μl, RIPA buffer mixed with protease and phosphatase inhibitor cocktail, Sigma-Aldrich) and homogenized to form tissue lysates. The total protein concentrations of tissue lysates were measured by using the bicinchoninic acid (BCA) assay.
In vitro inhibition of catalase activity. 3-amino-1,2,4-triazole was used as the inhibitor. Tissue lysates (10 mg/ml, 100 μl) were incubated in the inhibitor solution (20 mM) for 6 hours at 4° C.

in vivo = settings: pig
Procedure: In vivo evolution of pharmacokinetics of the praziquantel-tissue-accelerated polymerization. Pigs were sedated, intubated, and maintained with isoflurane as described above. The gastric fluid was removed from the stomach before administration. […] Praziquantel without the tissue-accelerated polymerization was used as the control. Blood samples were collected from a marginal ear vein at designated time points. Serum samples were separated from blood by centrifugation (1800 G×10 min at 4° C.) and were stored at −80° C. for further analysis. […] Serum praziquantel concentration assessment. Praziquantel concentrations in serum from in vivo experiments were analyzed using Ultra-Performance Liquid Chromatography-Tandem Mass Spectrometry (UPLC-MS/MS). Analysis was performed on a Waters ACQUITY UPLC-I-Class System aligned with a Waters Xevo TQ-S mass spectrometer (Waters Corporation, Milford Mass.). Liquid chromatographic separation was performed on an Acquity UPLC BEH C18 (50 mm×2.1 mm, 1.7-μm particle size) column at 50° C. The mobile phase consisted of aqueous 0.1% formic acid, 10 mM ammonium formate solution (Mobile Phase A) and acetonitrile: 10 mM ammonium formate, 0.1% formic acid solution (95:5 v/v) (Mobile Phase B). […] The composition of 0% Mobile Phase A and 100% Mobile Phase B was held constant until 3.50 minutes. The composition returned to 80% Mobile Phase A at 3.51 minutes and was held at this composition until completion of the run, ending at 5.00 minutes, where it remained for column equilibration. The total run time was 5.00 minutes. […] Sample introduction and ionization was by electrospray ionization (ESI) in the positive ionization mode. Waters MassLynx 4.1 software was used for data acquisition and analysis. Stock solutions of praziquantel were prepared in methanol at a concentration of 500 μg/ml. […] Samples were vortexed, sonicated for 10 minutes, and centrifuged for 10 minutes at 13,000 rpm. 200 μl of supernatant was pipetted into a 96-well plate containing 200 μl of water. Finally, 1.00 μl was injected onto the UPLC-ESI-MS system for analysis.

Compound | decrease of catalytic capacity of lysates (catalase) | AUC (in vivo; Yorkshire) [ng·h/mL] | concentration at 6 h (in vivo; Yorkshire) [ng/mL] | elimination phase (in vivo; Yorkshire) [h] | half-life (in vivo; Yorkshire) [h] | serum praziquantel concentration at 24 hours (in vivo)
Nc1nc[nH]n1 [catalase-specific inhibitor, 3-amino-1,2,4-triazole] | around 80% |  |  |  |  | 
O=C(C1CCCCC1)N1CC(=O)N2CCc3ccccc3C2C1 (stereo not drawn) [praziquantel control, Praziquantel] |  | 222 | 15.1 | 2 to 6 | 1.3 | no drug was detected
